The values below come from patent US6399298B1, “Ku70—related methods” (Sloan-Kettering Institute for Cancer Research, priority 1998, dated 2002).

Series [1] has as its system HeLa cells expressing antisense Ku70. Description: Cytotoxicity in stable HeLa cells expressing antisense Ku70 RNA (Tet-Off). As to conditions: adriamycin 1 μg/ml; expression of Ku70 antisense RNA; FIG. 13. It counts as cell-based, human. As to the method: Effect of (A) radiation, and (B) adriamycin on different cell types. O=HeLa controls cells; ▪=HeLa cells expressing antisense Ku70; ▴=HeLa cell expressing antisense Ku80.
Stable HeLa cells, containing human Ku70 cDNA or human Ku80 cDNA, in the antisense orientation, under the regulation of the Tet-Off™ expression system (Clonetech), were established. Upon induction of the expression system these cells should produce antisense Ku70 or Ku80 RNA, respectively. Experiments were performed showing (FIG. 13) that expression of either Ku70 or Ku80 antisense RNA increased the cytotoxic effect adriamycin by 3-5 fold at 1 μg/ml and that expression of Ku70 antisense RNA increased the cytotoxic effect of γ-radiation approximately 5 fold (at 6 Gy).

The test system of series [2] is HeLa cells expressing antisense Ku80. Description: Cytotoxicity in stable HeLa cells expressing antisense Ku80 RNA (Tet-Off). Particulars: adriamycin 1 μg/ml; expression of Ku80 antisense RNA; FIG. 13. It counts as cell-based, human.
Series [3] relates to cells derived from Ku80 knock-out mice. The series is described as follows: Survival experiments with cells derived from Ku80 knock-out mice. It counts as cell-based. Particulars: Ku80 knock-out mouse cells, FIG. 12.
For series [4], the system named is cells derived from Ku70 knock-out mice. The series is described as follows: Survival experiments with cells derived from Ku70 knock-out mice. It counts as cell-based. Particulars: Ku70 knock-out mouse cells, FIG. 12.

On to `COc1cccc2c1C(=O)c1c(O)c3c(c(O)c1C2=O)C[C@@](O)(C(=O)CO)C[C@@H]3O[C@H]1C[C@H](N)[C@H](O)[C@H](C)O1` [adriamycin], for which the “increase of the cytotoxic effect of adriamycin” value in series [1] and in series [2] was 3-5 fold each time. The “sensitivity of cells to the agent (survival)” value in series [3] and in series [4] was “very sensitive” each time.

Turning to bleomycin, the “sensitivity of cells to the agent (survival)” value in series [3] and in series [4] was “very sensitive” each time.
